Results from patent publication US8674096B2, “Substituted imidazo[1,5-a]quinoxalin-4-ones as phosphodiesterase 9 inhibitors” (priority 2009, dated 2014).

| melting point | Structure (SMILES) |
| --- | --- |
| 206 to 208 °C | Cc1cc2c(cc1C(=O)N1Cc3cccc(C)c3C1)[nH]c(=O)c1cnc(C3CCOCC3)n12.Cl |
| 198 to 200 °C | Cc1cc2c(cc1C(=O)N1Cc3cccc(Cl)c3C1)[nH]c(=O)c1cnc(C3CCOCC3)n12.Cl |
| 288 to 290 °C | Cc1cc2c(cc1C(=O)N1CCc3cc(Cl)ccc31)[nH]c(=O)c1nnc(C(=O)C3CC3)n12.Cl |
| 186 to 188 °C | CCCc1nnc2c(=O)[nH]c3cc(C(=O)N4CCN(c5ccccc5Cl)CC4)c(C)cc3n12 |
| 219 to 220 °C (dec.) | Cc1cc2c(cc1C(=O)N1CCc3cc(Br)ccc31)[nH]c(=O)c1cnc(C3CCOCC3)n12.Cl |
| 275 to 276 °C | O=C(c1ccc2c(c1)[nH]c(=O)c1nnc(C3CCOCC3)n12)N1CCOC(c2ccccc2)C1 (stereo not shown) |
| 206 to 208 °C | Cc1cc2c(cc1C(=O)N1CCc3cc(Cl)ccc31)[nH]c(=O)c1cnc(C3CCCOC3)n12.Cl (stereo not shown) |
| 204 to 206 °C | Cc1ccc2c(c1)CCN2C(=O)c1cc2[nH]c(=O)c3cnc(C4CCCOC4)n3c2cc1C.Cl (stereo not shown) |
| 267 °C (dec.) | Cc1cc2c(cc1C(=O)N1CCc3c(Cl)cccc3C1)[nH]c(=O)c1cnc(C3CCOCC3)n12 |
| 218 to 220 °C | Cc1cc2c(cc1C(=O)N1CCc3cc(Cl)ccc31)[nH]c(=O)c1nnc(C3CCCC3)n12.Cl |
| 219 to 221 °C | Cc1cc2c(cc1C(=O)N1CCc3onc(-c4ccc(Cl)cc4)c3C1)[nH]c(=O)c1nnc(C3CCOC3)n12.Cl (stereo not shown) |
| 207 to 209 °C | Cc1cc2c(cc1C(=O)N1CCc3cccnc31)[nH]c(=O)c1nnc(C3CCCC3)n12 |
| 203 to 205 °C | Cc1cc2c(cc1C(=O)N1Cc3cccc(F)c3C1)[nH]c(=O)c1cnc(C3CCOC3)n12.Cl (stereo not shown) |
| 287 °C (dec.) | Cc1cc2c(cc1C(=O)N1Cc3ccccc3C1)[nH]c(=O)c1nnc(C3CCOC(C)(C)C3)n12 (stereo not shown) |
| 208 to 209 °C | Cc1cc2c(cc1C(=O)N1CCc3cc(C4CC4)cnc31)[nH]c(=O)c1nnc(C3CCCC3)n12 |
| 335 to 336 °C | Cc1cc2c(cc1C(=O)N1CCc3cc(Cl)ccc31)[nH]c(=O)c1nnc(C3CCOCC3)n12 |
| 316 to 319 °C | Cc1cc2c(cc1C(=O)N1CCc3cc(F)c(Cl)cc31)[nH]c(=O)c1nnc(C3CCOCC3)n12.Cl |
| 370 °C (dec.) | Cc1cc2c(cc1C(=O)N1CCc3cccnc31)[nH]c(=O)c1nnc(C3CCOCC3)n12 |
| 318 to 321 °C (dec.) | Cl.O=C(c1cc2[nH]c(=O)c3cnc(C4CCOCC4)n3c2cc1C1CC1)N1CCc2cc(F)ccc21 |
| 199 to 201 °C (dec.) | COc1cc2c(cc1C(=O)N1Cc3ccccc3C1)[nH]c(=O)c1cnc(C3CCOCC3)n12.Cl |

| melting point | Structure (SMILES) |
| --- | --- |
| 223 to 225 °C | Cc1cc2c(cc1C(=O)N1Cc3c(F)ccc(F)c3C1)[nH]c(=O)c1cnc(C3CCCOC3)n12 (stereo not shown) |
| 335 °C (dec.) | Cc1cc2c(cc1C(=O)N1Cc3ccccc3C1)[nH]c(=O)c1c(C)nc(C3CCOCC3)n12.Cl |
| 310 °C (dec.) | O=C(c1cc2[nH]c(=O)c3cnc(C4CCOCC4)n3c2cc1C1CC1)N1CCc2cc(C3CC3)cnc21 |
| 287 to 288 °C | Cc1cc2c(cc1C(=O)N1CCc3cc(F)c(F)cc31)[nH]c(=O)c1cnc(C3CCOCC3)n12.Cl |
| 205 to 207 °C | Cl.O=C(c1cc2[nH]c(=O)c3cnc(C4CCOCC4)n3c2cc1C1CC1)N1Cc2cccc(F)c2C1 |
| 195 to 197 °C | COc1cc2c(cc1C(=O)N1Cc3cccc(F)c3C1)[nH]c(=O)c1cnc(C3CCOCC3)n12.Cl |
| 318 °C (dec.) | O=C(c1ccc2c(c1)[nH]c(=O)c1nnc(C3CCOCC3)n12)N1CCc2c(Cl)cccc2C1 |
| 219 to 221 °C (dec.) | CN(C)CCOc1cc2c(cc1C(=O)N1CCc3cc(Cl)ccc31)[nH]c(=O)c1cnc(C3CCOCC3)n12 |
| 210 to 211 °C (dec.) | Cc1cc2c(cc1C(=O)N1CCc3cccnc31)[nH]c(=O)c1nnc(C3CCOC3)n12.Cl (stereo not shown) |
| 293 °C (dec.) | CCCc1nnc2c(=O)[nH]c3cc(C(=O)N4Cc5ccc(F)cc5C4)ccc3n12 |
| 279 °C (dec.) | Cc1cc2c(cc1C(=O)N1CCc3cc(Cl)ccc31)[nH]c(=O)c1ncc(C3CCCC3)n12.Cl |
| 215 to 218 °C | Cc1cc2c(cc1C(=O)N1CCc3cc(Cl)ccc31)[nH]c(=O)c1nnc(CC3CCSCC3)n12.Cl |
| 200 to 202 °C | Cc1cc2c(cc1C(=O)N1CCc3cc(F)ccc31)[nH]c(=O)c1cnc([C@H]3CC[C@@H](O)CC3)n12.Cl |
| 243 to 245 °C | Cc1cc2c(cc1C(=O)N1CCc3cc(Cl)ccc31)[nH]c(=O)c1nnc(C3CC(F)(F)C3)n12 |
| 316 °C (dec.) | Cc1cc2c(cc1C(=O)N1Cc3ccccc3C1)[nH]c(=O)c1nnc(-c3ccccc3)n12 |
| 290 °C (dec.) | Cc1c(C(=O)N2CCc3cc(Cl)ccc32)ccc2c1[nH]c(=O)c1cnc(C3CCOCC3)n12 |
| 170 to 172 °C | Cc1cc2c(cc1C(=O)N1CCCc3ccccc3C1)[nH]c(=O)c1cnc(C3CCOCC3)n12.Cl |
| 318 to 321 °C | Cc1cc2c(cc1C(=O)N1Cc3ccccc3C1)[nH]c(=O)c1nnc([C@H]3CC[C@H](C)CC3)n12 |
| 262 to 263 °C | Cc1cc2c(cc1C(=O)N1Cc3cccc(C)c3C1)[nH]c(=O)c1nnc(C3CCOCC3)n12 |

Continued, compound first:

| Structure (SMILES) | melting point |
| --- | --- |
| Cc1cc2c(cc1C(=O)N1Cc3ccc(F)cc3C1)[nH]c(=O)c1cnc(C3CCCC3)n12 | 228 to 231 °C |
| Cc1cc2c(cc1C(=O)N1CCc3c(Cl)cccc3C1)[nH]c(=O)c1nnc(-c3sccc3C)n12 | 310 to 312 °C |
| CN1CCN(C(=O)c2ccc3c(c2)[nH]c(=O)c2nnc(-c4ccc(O)cc4)n23)CC1c1ccccc1 (stereo not shown) | 286 °C (dec.) |
| Cc1cc2c(cc1C(=O)N1CCc3cccc(C(=O)O)c3C1)[nH]c(=O)c1cnc(C3CCOCC3)n12.Cl | 212 to 213 °C |
| Cc1cc2c(cc1C(=O)N1Cc3cccc(N4CCOCC4)c3C1)[nH]c(=O)c1cnc(C3CCOCC3)n12.Cl | 225 °C (dec.) |
| Cc1cc2c(cc1C(=O)N1CCc3c(Cl)cc(Cl)cc3C1)[nH]c(=O)c1cnc(C3CCOCC3)n12.Cl | 188 to 190 °C (dec.) |
| Cc1cc2c(cc1C(=O)N1CCc3cnn(C)c3C1)[nH]c(=O)c1cnc(C3CCOCC3)n12 | 192 to 194 °C (dec.) |
| Cc1cc2c(cc1C(=O)N1Cc3cccc(C)c3C1)[nH]c(=O)c1cnc(C3CCCOC3)n12.Cl (stereo not shown) | 283 °C (dec.) |
| Cc1cc2c(cc1C(=O)N1CCc3cc(F)ccc31)[nH]c(=O)c1cnc(C3CCOC3)n12.Cl (stereo not shown) | 186 to 188 °C |
| Cc1cc2c(cc1C(=O)N1Cc3ccccc3C1)[nH]c(=O)c1nnc(C3CCC3)n12.Cl | 236 °C (dec.) |
| COc1cc2c(cc1C(=O)N1CCc3cc(F)ccc31)[nH]c(=O)c1cnc(C3CCOCC3)n12.Cl | 321 to 324 °C (dec.) |
| Cc1cc2c(cc1C(=O)N1Cc3ccccc3C1)[nH]c(=O)c1nnc(C3CCC(F)(F)CC3)n12 | 322 °C (dec.) |
| Cc1cc2c(cc1C(=O)N1CCc3cccnc31)[nH]c(=O)c1nnc(C3CCC(F)(F)CC3)n12.Cl | 310 °C (dec.) |
| Cc1cc2c(cc1C(=O)N1CCc3cc(Cl)ccc31)[nH]c(=O)c1c(C)nc(C3CCOCC3)n12.Cl | 198 °C (dec.) |
| COc1cc2c(cc1C(=O)N1CCc3cc(C4CC4)cnc31)[nH]c(=O)c1cnc(C3CCOCC3)n12 | 297 °C (dec.) |
| Cc1cc2c(cc1C(=O)N1CCc3cccnc31)[nH]c(=O)c1nnc(C3CCCOC3)n12 (stereo not shown) | 314 °C (dec.) |
| Cc1cc2c(cc1C(=O)N1CCc3ccccc3CC1)[nH]c(=O)c1nnc(C3CCOCC3)n12.Cl | 212 to 215 °C |
| Cc1cc2c(cc1C(=O)N1CCc3sccc3C1)[nH]c(=O)c1nnc(C3CCOCC3)n12.Cl | 216 to 219 °C |
| Cc1cc2c(cc1C(=O)N1CCc3c(cc(-c4ccccc4)n3C)C1)[nH]c(=O)c1nnc(C3CCOCC3)n12 | 223 to 225 °C |

| Structure (SMILES) | melting point |
| --- | --- |
| CCCc1nnc2c(=O)[nH]c3cc(C(=O)N4CCc5c(Cl)cccc5C4)ccc3n12 | 293 to 295 °C |
| Cc1cc2c(cc1C(=O)N1CCc3cc(Cl)cnc31)[nH]c(=O)c1cnc(C3CCOCC3)n12.Cl | 297 °C (dec.) |
| Cc1cc2c(cc1C(=O)N1CCc3cc(Br)cnc31)[nH]c(=O)c1nnc(C3CCC(F)(F)CC3)n12 | 343 °C (dec.) |
| Cc1cc2c(cc1C(=O)N1CCc3cc(Br)cnc31)[nH]c(=O)c1nnc(C3CCCOC3)n12 (stereo not shown) | 218 to 220 °C (dec.) |
| COc1cc2c(cc1C(=O)N1CCc3cc(Cl)ccc31)[nH]c(=O)c1nnc(C3CCOCC3)n12.Cl | 284 °C (dec.) |
| Cc1cc2c(cc1C(=O)N1Cc3ccc(F)cc3C1)[nH]c(=O)c1cnc(C3CCOCC3)n12.Cl | 200 to 203 °C |
| COCc1cc2c(cc1C(=O)N1Cc3c(F)ccc(F)c3C1)[nH]c(=O)c1cnc(C3CCOCC3)n12.Cl | 172 to 174 °C |
| Cc1cc2c(cc1C(=O)N1CCc3cc(F)ccc31)[nH]c(=O)c1nnc(C3CC(F)(F)C3)n12 | 234 to 235 °C |
| Cc1cc2c(cc1C(=O)N1CCc3cc(Cl)ccc31)[nH]c(=O)c1nnc(-c3ccccc3)n12 | 248 to 249 °C |
| Cc1cc2c(cc1C(=O)N1CCc3cc(Cl)ccc31)[nH]c(=O)c1nnc([C@H]3CC[C@H](O)CC3)n12.Cl | 235 to 237 °C |
| COc1cc2c(cn1)N(C(=O)c1cc3[nH]c(=O)c4nnc(C5CCOCC5)n4c3cc1C)CC2 | 271 °C (dec.) |
| Cc1ccc2c(c1)CCN2C(=O)c1cc2[nH]c(=O)c3c(C)nc(C4CCOCC4)n3c2cc1C.Cl | 264 to 266 °C (dec.) |
| COc1cc2c(cc1C(=O)N1Cc3ccccc3C1)[nH]c(=O)c1cnc(C3CCCCC3)n12.Cl | 299 to 303 °C |
| COCc1cc2c(cc1C(=O)N1CCc3cc(Cl)ccc31)[nH]c(=O)c1nnc(C3(C)CCOCC3)n12.Cl | 198 to 201 °C |
| COCc1cc2c(cc1C(=O)N1CCc3cc(F)c(F)cc31)[nH]c(=O)c1nnc(C3(C)CCOCC3)n12.Cl | 195 to 198 °C |
| Cc1ccc2c(c1)CCN2C(=O)c1cc2[nH]c(=O)c3cnc(C4CCOCC4)n3c2cc1C.Cl | 282 to 284 °C |
| Cc1cc2c(cc1C(=O)N1CCc3ccc(C(F)(F)F)cc31)[nH]c(=O)c1cnc(C3CCOCC3)n12.Cl | 276 to 277 °C |
| Cc1cc2c(cc1C(=O)N1CCc3c(Cl)cccc3C1)[nH]c(=O)c1cnc(C3CCCC3)n12 | 297 to 299 °C |
